According to PubChem BioAssay AID328 (DTP/NCI, 2004):
Where “and” joins values, the source holds several entries; their conditions need not be identical. Equal entries are not always repeated. Inconclusive results and toxic doses are left out.

Tested on: BDF1 mice, P388 leukemia ip, median survival T/C
Assay: NCI In Vivo Anticancer Drug Screen. Data for tumor model P388 Leukemia (intraperitoneal) in B6D2F1 (BDF1) mice
Details: endpoint: median survival time, higher = longer survival
Outline: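 Mice carrying the transplantable tumour receive compound or vehicle. Survival is followed in each arm, and the treated measure is divided by the vehicle measure.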

[1] = dose: 100.0 mg/kg/injection, schedule: Q01DX001 (ip), vehicle: Klucel (hydroxypropylcellulose) (HPC)
[2] = dose: 100.0 mg/kg/injection, schedule: Q01DX009 (ip), vehicle: Klucel (hydroxypropylcellulose) (HPC)
[3] = dose: 200.0 mg/kg/injection, schedule: Q01DX001 (ip), vehicle: Klucel (hydroxypropylcellulose) (HPC)
[4] = dose: 400.0 mg/kg/injection, schedule: Q01DX009 (ip), vehicle: Klucel (hydroxypropylcellulose) (HPC)
[5] = dose: 25.0 mg/kg/injection, schedule: Q01DX009 (ip), vehicle: saline
[6] = dose: 50.0 mg/kg/injection, schedule: Q01DX009 (ip), vehicle: saline
[7] = dose: 100.0 mg/kg/injection, schedule: Q01DX009 (ip), vehicle: saline
[8] = dose: 100.0 mg/kg/injection, schedule: Q04DX003 (ip), vehicle: saline
[9] = dose: 200.0 mg/kg/injection, schedule: Q01DX009 (ip), vehicle: saline
[10] = dose: 200.0 mg/kg/injection, schedule: Q04DX003 (ip), vehicle: saline
[11] = dose: 400.0 mg/kg/injection, schedule: Q04DX003 (ip), vehicle: saline

`O=C1c2ccccc2CCC1(Br)C(Br)c1ccccc1` (configuration not stated) was tested, and the T/C [1] was 100 % of control, the T/C [2] was 100 % of control and the T/C (dose: 100.0 mg/kg/injection, schedule: Q04DX003 (ip), vehicle: Klucel (hydroxypropylcellulose) (HPC)) was 113 % of control. For the same molecule, the T/C (dose: 130.0 mg/kg/injection, schedule: Q01DX001 (ip), vehicle: Klucel (hydroxypropylcellulose) (HPC)) was 90 % of control, the T/C (dose: 133.0 mg/kg/injection, schedule: Q01DX001 (ip), vehicle: Klucel (hydroxypropylcellulose) (HPC)) was 100 % of control and the T/C [3] was 100 % of control and 109 % of control. For the same molecule, the T/C (dose: 200.0 mg/kg/injection, schedule: Q01DX009 (ip), vehicle: Klucel (hydroxypropylcellulose) (HPC)) was 100 % of control, the T/C (dose: 200.0 mg/kg/injection, schedule: Q04DX003 (ip), vehicle: Klucel (hydroxypropylcellulose) (HPC)) was 113 % of control and the T/C (dose: 300.0 mg/kg/injection, schedule: Q01DX001 (ip), vehicle: Klucel (hydroxypropylcellulose) (HPC)) was 95 % of control and 100 % of control. For the same molecule, the T/C (dose: 400.0 mg/kg/injection, schedule: Q01DX001 (ip), vehicle: Klucel (hydroxypropylcellulose) (HPC)) was 112 % of control, the T/C [4] was 100 % of control and the T/C (dose: 400.0 mg/kg/injection, schedule: Q04DX003 (ip), vehicle: Klucel (hydroxypropylcellulose) (HPC)) was 121 % of control.

For `NNc1cccc(C(F)(F)F)c1`, the T/C (dose: 12.5 mg/kg/injection, schedule: Q01DX009 (ip), vehicle: saline) was 106 % of control, the T/C [5] was 104 % of control and the T/C [6] was 117 % of control.

With `O=Cc1c[nH]c2nccnc12` the T/C [5] was 98 % of control, the T/C [6] was 101 % of control and the T/C [7] was 99 % of control and 115 % of control. For the same molecule, the T/C [8] was 100 % of control, the T/C [9] was 107 % of control and 108 % of control and the T/C [10] was 101 % of control. For the same molecule, the T/C [11] was 103 % of control.

With `Oc1cccc(O)c1` the T/C (dose: 50.0 mg/kg/injection, schedule: Q01DX010 (ip), vehicle: saline) was 95 % of control and the T/C (dose: 100.0 mg/kg/injection, schedule: Q01DX010 (ip), vehicle: saline) was 91 % of control.

In the case of `FC(F)(F)c1nc(Cl)nc(Cl)c1Cl`, the T/C (dose: 3.12 mg/kg/injection, schedule: Q01DX005 (ip), vehicle: saline) is reported as 105 % of control, the T/C (dose: 6.25 mg/kg/injection, schedule: Q01DX005 (ip), vehicle: saline) is reported as 100 % of control and the T/C (dose: 12.5 mg/kg/injection, schedule: Q01DX005 (ip), vehicle: saline) is reported as 110 % of control.

In the case of `CCCSc1ccc([N+](=O)[O-])cc1`, the T/C (dose: 200.0 mg/kg/injection, schedule: Q04DX002 (ip), vehicle: saline with Tween-80) is reported as 93 % of control and the T/C (dose: 400.0 mg/kg/injection, schedule: Q04DX002 (ip), vehicle: saline with Tween-80) is reported as 101 % of control.

For `COc1cc([C@@H]2c3cc4c(cc3[C@H](OC3OC5COC(c6ccccc6)OC5C(O)C3O)[C@H]3COC(=O)[C@H]23)OCO4)cc(OC)c1OC` (some centres not stated), the T/C (dose: 3.1 mg/kg/injection, schedule: Q01DX010 (ip), vehicle: carboxymethylcellulose (CMC)) was 180 % of control, the T/C (dose: 6.2 mg/kg/injection, schedule: Q01DX010 (ip), vehicle: carboxymethylcellulose (CMC)) was 210 % of control and the T/C (dose: 12.5 mg/kg/injection, schedule: Q01DX010 (ip), vehicle: carboxymethylcellulose (CMC)) was 235 % of control. For the same molecule, the T/C (dose: 25.0 mg/kg/injection, schedule: Q01DX010 (ip), vehicle: carboxymethylcellulose (CMC)) was 270 % of control and the T/C (dose: 50.0 mg/kg/injection, schedule: Q01DX010 (ip), vehicle: carboxymethylcellulose (CMC)) was 300 % of control.

With `C=C1C(=O)O[C@@H]2C[C@@H](C)[C@@H]3[C@@H](OC4OC(COC(C)=O)C(O)C(O)C4O)CC(=O)[C@@]3(C)C[C@H]12` (some centres not stated) the T/C (dose: 2.8 mg/kg/injection, schedule: Q01DX009 (ip), vehicle: saline) was 100 % of control, the T/C (dose: 4.2 mg/kg/injection, schedule: Q01DX009 (ip), vehicle: saline) was 122 % of control and the T/C [6] was 100 % of control. For the same molecule, the T/C (dose: 75.0 mg/kg/injection, schedule: Q01DX009 (ip), vehicle: saline) was 105 % of control.

In the case of `O=C(CCl)c1ccc(O)c(O)c1`, the T/C (dose: 3.12 mg/kg/injection, schedule: Q01DX009 (ip), vehicle: saline with Tween-80) is reported as 109 % of control, the T/C (dose: 4.5 mg/kg/injection, schedule: Q04DX003 (ip), vehicle: saline with Tween-80) is reported as 104 % of control and the T/C (dose: 6.25 mg/kg/injection, schedule: Q01DX009 (ip), vehicle: saline with Tween-80) is reported as 109 % of control. For the same molecule, the T/C (dose: 9.0 mg/kg/injection, schedule: Q04DX003 (ip), vehicle: saline with Tween-80) was 100 % of control, the T/C (dose: 12.5 mg/kg/injection, schedule: Q01DX009 (ip), vehicle: Klucel (hydroxypropylcellulose) (HPC)) was 106 % of control and 120 % of control and the T/C (dose: 12.5 mg/kg/injection, schedule: Q01DX009 (ip), vehicle: saline with Tween-80) was 122 % of control. For the same molecule, the T/C (dose: 40.0 mg/kg/injection, schedule: Q01DX001 (ip), vehicle: saline) was 118 % of control.

`CCNCc1ccc(OC)cc1` was tested, and the T/C (dose: 25.0 mg/kg/injection, schedule: Q04DX003 (ip), vehicle: saline) was 100 % of control, the T/C (dose: 50.0 mg/kg/injection, schedule: Q04DX003 (ip), vehicle: saline) was 100 % of control and the T/C [8] was 100 % of control.

`CC1CCCC2(CN=C(Nc3ccccc3)O2)C1` (configuration not stated) was tested, and the T/C [1] was 99 % of control and the T/C [3] was 114 % of control.

With `O=C(c1ccccc1)C1CN(C2CCCCC2)C1c1ccccc1` (configuration not stated) the T/C (dose: 25.0 mg/kg/injection, schedule: Q01DX009 (ip), vehicle: saline with Tween-80) was 102 % of control, the T/C (dose: 50.0 mg/kg/injection, schedule: Q01DX009 (ip), vehicle: saline with Tween-80) was 90 % of control and the T/C (dose: 100.0 mg/kg/injection, schedule: Q01DX009 (ip), vehicle: saline with Tween-80) was 102 % of control. The T/C (dose: 200.0 mg/kg/injection, schedule: Q01DX009 (ip), vehicle: saline with Tween-80) was 100 % of control.

For `CCC1/C=C/C=C/CC(C)C(O)C(C)(O)C(=O)C(C)C(O)C(C)C(=O)C(C)C(O)C(C)/C=C/C(=O)OC2C(C)C(CC1)OC1(OC(CC(C)O)C(C)CC1=O)C2C` (configuration not stated) (tested in a mixture with another compound), the T/C (dose: 0.15 mg/kg/injection, schedule: Q01DX010 (ip), vehicle: carboxymethylcellulose (CMC)) was 110 % of control, the T/C (dose: 0.15 mg/kg/injection, schedule: Q01DX010 (ip), vehicle: saline) was 109 % of control and the T/C (dose: 0.3 mg/kg/injection, schedule: Q01DX010 (ip), vehicle: carboxymethylcellulose (CMC)) was 110 % of control. For the same molecule, the T/C (dose: 0.3 mg/kg/injection, schedule: Q01DX010 (ip), vehicle: saline) was 150 % of control and 154 % of control, the T/C (dose: 0.6 mg/kg/injection, schedule: Q01DX010 (ip), vehicle: carboxymethylcellulose (CMC)) was 120 % of control and the T/C (dose: 0.6 mg/kg/injection, schedule: Q01DX010 (ip), vehicle: saline) was 154 % of control. For the same molecule, the T/C (dose: 1.2 mg/kg/injection, schedule: Q01DX010 (ip), vehicle: carboxymethylcellulose (CMC)) was 190 % of control, the T/C (dose: 1.2 mg/kg/injection, schedule: Q01DX010 (ip), vehicle: saline) was 163 % of control and the T/C (dose: 2.5 mg/kg/injection, schedule: Q01DX009 (ip), vehicle: saline) was 154 % of control. For the same molecule, the T/C (dose: 2.5 mg/kg/injection, schedule: Q01DX010 (ip), vehicle: saline) was 154 % of control, the T/C (dose: 5.0 mg/kg/injection, schedule: Q01DX009 (ip), vehicle: saline) was 163 % of control and the T/C (dose: 37.0 micrograms/kg/injection, schedule: Q01DX010 (ip), vehicle: saline) was 120 % of control. The T/C (dose: 150.0 micrograms/kg/injection, schedule: Q01DX010 (ip), vehicle: saline) was 150 % of control.

For `CC1(C)OC(=O)CC(=O)O1`, the T/C [7] was 105 % of control, the T/C [8] was 91 % of control and the T/C [9] was 100 % of control. The T/C [10] was 91 % of control and the T/C [11] was 100 % of control.

In the case of `CSc1cccc(NC(C)=O)c1`, the T/C [2] is reported as 95 % of control, the T/C (dose: 100.0 mg/kg/injection, schedule: Q04DX003 (ip), vehicle: saline with Tween-80) is reported as 104 % of control and the T/C (dose: 200.0 mg/kg/injection, schedule: Q04DX003 (ip), vehicle: saline with Tween-80) is reported as 100 % of control. The T/C [4] was 95 % of control and the T/C (dose: 400.0 mg/kg/injection, schedule: Q04DX003 (ip), vehicle: saline with Tween-80) was 109 % of control.
